Laboratory results from patent publication US11401279B2, “Pyrido[3,2-d]pyrimidine compounds as immunomodulators” (Incyte Corporation, priority 2019, dated 2022).

Molecular target: PD-1/PD-L1 (Homo sapiens (Human), UniProt Q9NZQ7)
Assay: Homogeneous Time-Resolved Fluorescence (HTRF) PD-1/PD-L1 binding assay
Settings: recombinant human PD-1 and PD-L1
Method in brief: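 Human PD-1 (25-167, Fc-tagged; 3 nM) and PD-L1 (19-238, His-tagged; 10 nM) were preincubated 40 min with inhibitors in PBS pH 7.4, 0.05% Tween-20, 0.1% BSA, 1% DMSO, at 25 °C. Eu-anti-human IgG (1 nM) and anti-His-APC (20 nM) were added for 60 min. The 665/620 nm HTRF ratio gave IC50 by curve fitting.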

Sequence of PD-1/PD-L1 (Q9NZQ7 19-238): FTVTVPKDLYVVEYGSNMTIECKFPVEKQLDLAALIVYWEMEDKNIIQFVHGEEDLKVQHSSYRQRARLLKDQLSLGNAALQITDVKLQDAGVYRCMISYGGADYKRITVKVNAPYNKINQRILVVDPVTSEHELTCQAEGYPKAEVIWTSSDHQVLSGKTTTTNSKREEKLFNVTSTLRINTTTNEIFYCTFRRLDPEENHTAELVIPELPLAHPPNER

SMILES	IC50 [nM]
Cc1c(Nc2nc(C(F)F)nc3cc(CN4CC[C@@H](O)C4)cnc23)cccc1-c1cccc(NC(=O)c2nc3c(n2C)CCN(CCC24CCC(C(=O)O)(CC2)C4)C3)c1Cl [Example 1, (R)-4-(2-(2-((2-chloro-3′-((2-(difluoromethyl)-7-((3-hydroxypyrrolidin-1-yl)methyl)pyrido[3,2-d]pyrimidin-4-yl)amino)-2′-methyl-[1,1′-biphenyl]-3-yl)carbamoyl)-1-methyl-1,4,6,7-tetrahydro-5H-imidazo[4,5-c]pyridin-5-yl)ethyl)bicyclo[2.2.1]heptane-1-carboxylic Acid]	2.2
Cc1c(Nc2nc(C(F)F)nc3cc(CN4CC[C@@](C)(O)C4)cnc23)cccc1-c1cccc(NC(=O)c2nc3c(n2C)CCN(CCC24CCC(C(=O)O)(CC2)C4)C3)c1Cl [Example 2, (R)-4-(2-(2-((2-chloro-3′-((2-(difluoromethyl)-7-((3-hydroxy-3-methylpyrrolidin-1-yl)methyl)pyrido[3,2-d]pyrimidin-4-yl)amino)-2′-methyl-[1,1′-biphenyl]-3-yl)carbamoyl)-1-methyl-1,4,6,7-tetrahydro-5H-imidazo[4,5-c]pyridin-5-yl)ethyl)bicyclo[2.2.1]heptane-1-carboxylic Acid]	1.5
Cc1c(NC(=O)c2nc3c(n2C)CCN(CCC24CCC(C(=O)O)(CC2)C4)C3)cccc1-c1cccc(Nc2nc(C(F)F)nc3cc(CN4CC[C@@H](O)C4)cnc23)c1C [Example 5, (R)-4-(2-(2-((3′-((2-(difluoromethyl)-7-((3-hydroxypyrrolidin-1-yl)methyl)pyrido[3,2-d]pyrimidin-4-yl)amino)-2,2′-dimethyl-[1,1′-biphenyl]-3-yl)carbamoyl)-1-methyl-1,4,6,7-tetrahydro-5H-imidazo[4,5-c]pyridin-5-yl)ethyl)bicyclo[2.2.1]heptane-1-carboxylic Acid]	2.1
